pIC50: −log10 of the molar value. One block for each compound: values may come before it.
Legend:
[1] = test system: SCG neurons; assay: In vitro protection of SCG neurons from Taxol killing; type: cell-based, Sprague Dawley rats; conditions: Rattus norvegicus, Neuron, read-out: IC50, rescue from Taxol killing of SCG neurons
Description: Taxol™ is regularly used in breast cancer chemotherapy. In cancer cells Taxol™ binds to the cyto-skeletal protein tubulin, thereby inhibiting normal microtubular assembly and inducing cellular apoptosis. Despite its potency as an anti-tumour agent, Taxol™ is also toxic to neurons, inducing dose limiting peripheral neuropathies. The addition of Taxol™ (100 ng/mL) to cultured SCG neurons induces the degradation or loss of upwards of 80% of the neurons. The addition of selected compounds of Formula I to the cellular media, concurrently with Taxol™, protects upwards of 100% of the neurons, at drug concentrations ranging from 1 to 50 μM (see Example 74).
(§1) SCG neurons were isolated from day 1 neonatal Sprague Dawley rats, plated at a cell density of 10,000 cells/well, and incubated in Biowhittaker Utraculture containing 1% Penstrep, 1% L-glutamine, 0.7% ARAC, 3% rat serum, and NGF (50 ng/mL, Calomone Labs) at 37° C., under a 5% CO2 atmosphere. After 5 days the cells were treated with compound and Taxol™ (50 ng/mL). Viability was assessed 48 hours later using MTS (Promega) staining.

[2] = test system: SCG neurons; assay: In vitro protection of SCG neurons from cisplatin killing; type: cell-based, Sprague Dawley rats; conditions: Rattus norvegicus, Neuron; cisplatin 3 μg/mL, 48 hours, MTS viability; read-out: IC50, protection of SCG neurons against cisplatin killing
Description: The mechanism of Cisplatin's anti-cancer action is not fully understood, but is believed to involve DNA binding and cleavage. Cisplatin is highly toxic to neurons. The addition of cisplatin (3 μg/mL) to cultured SCG neurons induces apoptosis of upwards of 80% of the neurons. The addition of selected compounds of Formula I to the cellular media, concurrently with cisplatin, protects upwards of 100% of the neurons, at drug concentrations ranging from 1 to 50 μM (see Example 75).
as §1, with “cisplatin (3 μg/mL).” for “Taxol™ (50 ng/mL).”

[3] = test system: SCG neurons; assay: Protection of SCG neurons from anti-NGF killing; type: cell-based, Sprague Dawley rats; conditions: Rattus norvegicus, Neuron; anti-NGF antibody, 48 hours, Alamar Blue viability; read-out: IC(50), rescue from anti-NGF killing of SCG neurons
Description: Neurotrophins are critical to the growth, development, and survival of small fiber neurons of the PNS. […] In a typical experiment SCG neurons are cultured in the presence of NGF, which induces survival and neurite out-growth. After 5 days the NGF is removed by either the addition of anti-NGF polyclonal antibody (Sigma) or by repeated washings (4 times) with NGF free media, resulting in the apoptosis of up to 90% of the neurons after 48 hours, as measured by MTS staining. The addition of selected compounds of Formula I to the final cellular media provides upwards of 100% protection, at drug concentrations ranging from 1 to 50 μM (see Example 73).
SCG neurons were isolated from day 1 neonatal Sprague Dawley rats, plated at a cell density of 5,000 cells/well, and incubated in Biowhittaker Utraculture containing 1% Penstrep, 1% L-glutamine, 0.7% ARAC, 3% rat serum, and NGF (50 ng/mL, Calomone Labs), at 37° C., under a 5% CO2 atmosphere. After 4 days the cells were treated with anti-NGF antibody (Sigma). At this time compound was added and the cells were maintained serum and NGF free for 48 hours, at which time viability was assessed using Alamar Blue (Medicorp) staining.

[4] = test system: SH-SY5Y; assay: Sulforhodamine B assay, killing of SH-SY5Y neuroblastoma cells; type: cell-based, Human
Description: (§2) Compound represented by Formula I were tested for anti-cancer properties using the sulforhodamine B assay. Human neuroblastomas SK-N-AS, and SH-SY5Y were plated in 96 well plates at a density of 15 000 cells/well. Daoy medulloblastoma cells were plated at a density of 2000 cells/well. Cells were cultured in RPMI supplemented with 5% fetal bovine serum and test compounds. After 72 hours of culture cell growth was assessed by sulforhodamine B. Cellular protein was precipitated and fixed with trichloroacetic acid and detected by incubation with sulforhodamine B. Bound dye solubilized in trizma base and was assessed by absorbance at 515 nm. Compound 28 caused either cell death or inhibited cellular proliferation of the SK-N-AS and SH-SY5Y neuroblastoma and daoy medulloblastoma cells with ED50s of 7, 5, and 2 µM, respectively.
(§3) Human neuroblastomas SK-N-AS, and SH-SY5Y were plated in 96 well plates at a density of 15 000 cells/well. Daoy medulloblastoma cells were plated at a density of 2000 cells/well. Cells were cultured in RPMI supplemented with 5% fetal bovine serum and test compound at various concentrations. After 72 hours of culture cell growth was assessed by sulforhodamine B. Cellular protein was precipitated and fixed with trichloroacetic acid and detected by incubation with sulforhodamine B. Bound dye solublized in trizma base and was assessed by absorbance at 515 nm.

[5] = test system: SK-N-AS; assay: Sulforhodamine B assay, killing of SK-N-AS neuroblastoma cells; type: cell-based, Human
Description: as §2, §3

[6] = test system: Daoy medulloblastoma cells; assay: Sulforhodamine B assay, killing of Daoy medulloblastoma cells; type: cell-based
Description: as §2, §3

[7] = Aqueous solubility in saline; type: physicochemical; conditions: saline or isotonic, acid salt
Description: Select compounds bearing a basic moiety display good aqueous solubility as the corresponding acid salt. For example, compound 56.2HCl is soluble at >100 mg/mL in saline, allowing for the ready application of these compounds via multiple routes of administration either oral or percutaneous.

[8] = Taxol 50 ng/mL, 48 hours, MTS viability

Structure (SMILES): [O-][S+](Cc1ccccn1)c1nn2cc(-c3cccc(F)c3)nc2s1 (stereo not drawn) [Compound 13]
pIC50 [1, 8]: 6.00

Structure (SMILES): CN(C)CC[S+]([O-])c1nn2cc(-c3cccc(F)c3)nc2s1 (stereo not drawn) [Compound 29]
pIC50 [2]: 5.52
pIC50 [1, 8]: 6.00

Structure (SMILES): [O-][S+](Cc1ccncc1)c1nn2cc(-c3ccc(Oc4ccc(Cl)cc4)cc3)nc2s1 (stereo not drawn) [Compound 17]
pIC50 [2]: 6.52
pIC50 [1, 8]: 5.70

Structure (SMILES): [O-][S+](CCc1ccccc1)c1nn2cc(-c3ccc(Oc4ccc(Cl)cc4)cc3)nc2s1 (stereo not drawn) [Compound 3]
pIC50 [1, 8]: 5.15
pIC50 [3]: 5.10

Structure (SMILES): CS(=O)(=O)NCCS(=O)(=O)c1nn2cc(-c3ccccc3)nc2s1 [Compound 45]
pIC50 [2]: 6.00

Structure (SMILES): O=S(=O)(Cc1ccccc1)c1nn2cc(-c3c(F)c(F)c(F)c(F)c3F)nc2s1 [Compound 2]
pIC50 [2]: 6.10

Structure (SMILES): CN1CCCN(CC[S+]([O-])c2nn3cc(-c4ccccc4)nc3s2)CC1 (stereo not drawn) [Compound 56]
pIC50 [1, 8]: 6.00

Structure (SMILES): O=S(=O)(Cc1ccncc1)c1nn2cc(-c3ccccc3)nc2s1 [Compound 10]
pIC50 [1, 8]: 6.10

Structure (SMILES): [O-][S+](CCN1CCN(Cc2ccccc2)CC1)c1nn2c(-c3ccccc3)cnc2s1 (stereo not drawn) [Compound 66]
pIC50 [1, 8]: 5.00

Structure (SMILES): CN1CCN(CC[S+]([O-])c2nn3cc(-c4ccc5c(c4)OCCCO5)nc3s2)CC1 (stereo not drawn) [Compound 71]
pIC50 [1, 8]: 5.52

Structure (SMILES): CC(C)(C)OC(=O)NCC[S+]([O-])c1nn2cc(-c3ccccn3)nc2s1 (stereo not drawn) [Compound 35]
pIC50 [1, 8]: 5.70

Structure (SMILES): [O-][S+](CCc1ccccn1)c1nn2cc(-c3ccc(F)cc3)nc2s1 (stereo not drawn) [Compound 19]
pIC50 [2]: 6.10
pIC50 [1, 8]: 5.22

Structure (SMILES): CC[S+]([O-])c1nn2cc(-c3cnccn3)nc2s1 (stereo not drawn) [Compound 40]
pIC50 [1, 8]: 5.52

Structure (SMILES): CC(=O)N1CCN(CC[S+]([O-])c2nn3c(-c4ccccc4)cnc3s2)CC1 (stereo not drawn) [Compound 65]
pIC50 [1, 8]: 5.00

Structure (SMILES): O=S(=O)(Cc1ccccn1)c1nn2cc(-c3ccccc3)nc2s1 [Compound 6]
pIC50 [1, 8]: 5.82

Structure (SMILES): [O-][S+](CCN1CCOCC1)c1nn2cc(-c3ccc(F)cc3)nc2s1 (stereo not drawn) [Compound 28]
ED50, cell death or inhibited cellular proliferation ([4]; 72 hours, sulforhodamine B): 5 µM
concentration at which the cell line is potently killed in vitro (as low as) ([4]; FIG. 1, sulforhodamine B): ≥ 5 µM
pIC50 [2]: 6.00
pIC50 [1, 8]: 5.30
ED50, cell death or inhibited cellular proliferation ([5]; 72 hours, sulforhodamine B): 7000 nM
concentration at which the cell line is potently killed in vitro (as low as) ([5]; FIG. 1, sulforhodamine B): ≥ 5 µM
ED50, cell death or inhibited cellular proliferation ([6]; 72 hours, sulforhodamine B): 2000 nM
concentration at which the cell line is potently killed in vitro (as low as) ([6]; FIG. 1, sulforhodamine B): ≥ 5 µM

Structure (SMILES): CN1CCN(CC[S+]([O-])c2nn3cc(-c4ccc(F)cc4)nc3s2)CC1 (stereo not drawn) [Compound 70]
pIC50 [2]: 6.00
pIC50 [1, 8]: 6.00

Structure (SMILES): NCCS(=O)(=O)c1nn2cc(-c3ccccc3)nc2s1 [Compound 44]
pIC50 [2]: 5.70
pIC50 [1, 8]: 5.70

Structure (SMILES): CC[S+]([O-])c1nn2cc(-c3ccc(OCCO)cc3)nc2s1 (stereo not drawn) [Compound 32]
pIC50 [1, 8]: 5.30

Structure (SMILES): CN(C)CC(=O)NCCS(=O)(=O)c1nn2cc(-c3ccc(F)cc3)nc2s1 [Compound 48]
pIC50 [1, 8]: 6.10

Structure (SMILES): O=S(=O)(Cc1ccncc1)c1nn2cc(-c3ccc(Oc4ccc(Cl)cc4)cc3)nc2s1 [Compound 18]
pIC50 [2]: 6.52

Structure (SMILES): [O-][S+](Cc1ccncc1)c1nn2cc(-c3ccccc3)nc2s1 (stereo not drawn) [Compound 9]
pIC50 [1, 8]: 6.10

Structure (SMILES): [O-][S+](Cc1ccccn1)c1nn2cc(-c3ccc(Oc4ccc(Cl)cc4)cc3)nc2s1 (stereo not drawn) [Compound 15]
pIC50 [1, 8]: 6.00

Structure (SMILES): CC(=O)N1CCN(CC[S+]([O-])c2nn3cc(-c4ccccc4)nc3s2)CC1 (stereo not drawn) [Compound 60]
pIC50 [1, 8]: 6.00

Structure (SMILES): CN1CCN(CC[S+]([O-])c2nn3cc(-c4ccccc4)nc3s2)CC1 (stereo not drawn) [Compound 54]
pIC50 [1, 8]: 5.52

Structure (SMILES): [O-][S+](Cc1ccccc1)c1nn2cc(-c3c(F)c(F)c(F)c(F)c3F)nc2s1 (stereo not drawn) [Compound 1]
pIC50 [1, 8]: 6.00

Structure (SMILES): CC[S+]([O-])c1nn2cc(-c3ccccn3)nc2s1 (stereo not drawn) [Compound 37]
pIC50 [1, 8]: 5.70

solubility [7]: > 100 mg/mL
Structure (SMILES): CN1CCCN(CC[S+]([O-])c2nn3cc(-c4ccccc4)nc3s2)CC1 (stereo not drawn) [Compound 56.2HCl]

Structure (SMILES): CC(=O)Nc1ccc(S(=O)(=O)c2nn3cc(-c4ccccn4)nc3s2)cc1 [Compound 52]
pIC50 [1, 8]: 6.00

Structure (SMILES): O=S(=O)(Cc1cccnc1)c1nn2cc(-c3ccccc3)nc2s1 [Compound 8]
pIC50 [1, 8]: 6.10

Structure (SMILES): O=S(=O)(Cc1ccccn1)c1nn2cc(-c3ccc(Oc4ccc(Cl)cc4)cc3)nc2s1 [Compound 16]
pIC50 [2]: 6.30
pIC50 [1, 8]: 6.30

Structure (SMILES): [O-][S+](CCN1CCC(O)CC1)c1nn2cc(-c3ccccc3)nc2s1 (stereo not drawn) [Compound 62]
pIC50 [1, 8]: 5.00

Structure (SMILES): [O-][S+](CCN1CCC(Cc2ccccc2)CC1)c1nn2cc(-c3ccccc3)nc2s1 (stereo not drawn) [Compound 63]
pIC50 ([1]; 48 h): 5.00

Structure (SMILES): [O-][S+](Cc1ccncc1)c1nn2cc(-c3ccc(N4CCOCC4)cc3)nc2s1 (stereo not drawn) [Compound 30]
pIC50 [1, 8]: < 5.00

Structure (SMILES): [O-][S+](Cc1ccccn1)c1nn2cc(-c3ccccc3)nc2s1 (stereo not drawn) [Compound 5]
pIC50 [1, 8]: 6.00

Structure (SMILES): O=S(=O)(Cc1ccccn1)c1nn2cc(-c3cccc(F)c3)nc2s1 [Compound 14]
pIC50 [1, 8]: 5.52

Structure (SMILES): CN1CCN(CCC[S+]([O-])c2nn3cc(-c4ccccc4)nc3s2)CC1 (stereo not drawn) [Compound 69]
pIC50 [2]: 6.00
pIC50 [1, 8]: 6.00

Structure (SMILES): [O-][S+](CCN1CCNCC1)c1nn2cc(-c3ccccc3)nc2s1 (stereo not drawn) [Compound 58]
pIC50 [1, 8]: 6.00

Structure (SMILES): [O-][S+](CCN1CCCCC1)c1nn2cc(-c3ccccc3)nc2s1 (stereo not drawn) [Compound 61]
pIC50 [1, 8]: 5.00

Structure (SMILES): CCS(=O)(=O)c1nn2cc(-c3ccc(OCCO)cc3)nc2s1 [Compound 33]
pIC50 [1, 8]: 6.00

Structure (SMILES): O=S(=O)(CCc1ccccc1)c1nn2cc(-c3ccc(Oc4ccc(Cl)cc4)cc3)nc2s1 [Compound 4]
pIC50 [1, 8]: 6.00
pIC50 [3]: 5.22
